# Assay results as given in patent US12371454B2, “Cyclic peptide compound having Kras inhibitory action” (priority 2019, dated 2025).
# pIC50: −log10 of the molar value. Starred links: 1 amine or outer side, 2 acyl side, 3 side chain; linkers in the order of their positions; H or OH if unused. Positions of bridges follow the written chain, without caps; N, C: chain ends. Non-standard residues stand in square brackets, D forms with d. Residues, ends and D or L forms follow the SMILES beside them. *: point of attachment. hPhe(3-Cl-4-CF3) = N[C@@H](CCc1ccc(C(F)(F)F)c(Cl)c1)C(=O)O; hPhe(3-F,4-CF3) = N[C@@H](CCc1ccc(C(F)(F)F)c(F)c1)C(=O)O; NMePhe(4-CF3) = CN[C@@H](Cc1ccc(C(F)(F)F)cc1)C(=O)O; 3Oxa8azabicyclo(3.2.1)octane = C1CC2COCC1N2*; NMePhe(4-Me) = CN[C@@H](Cc1ccc(C)cc1)C(=O)O; NMePhe(4-I) = CN[C@@H](Cc1ccc(I)cc1)C(=O)O; NMedβ3hAla = C[C@H](CC(=O)[*:2])N(C)[*:1]; NMeAla(cPent) = CN[C@@H](CC1CCCC1)C(=O)O; NMeGly(cPent) = CN[C@H](C(=O)O)C1CCCC1; Pro(4,4-F2) = O=C(O)[C@@H]1CC(F)(F)CN1; oXylylene = c1ccc(C[*:2])c(C[*:1])c1; NMeCha = CN[C@@H](CC1CCCCC1)C(=O)O; cisHyp = O=C(O)[C@@H]1C[C@H](O)CN1; NMehLeu = CN[C@@H](CCC(C)C)C(=O)O; NMeCba = CN[C@@H](CC1CCC1)C(=O)O; NMeChg = CN[C@H](C(=O)O)C1CCCCC1; NMeI = CC[C@H](C)[C@H](NC)C(=O)O; Gly(cBu) = N[C@H](C(=O)O)C1CCC1; NMeD = CN[C@@H](CC(=O)O)C(=O)O; NMeHpra = C#CCC[C@H](NC)C(=O)O; NMeL = CN[C@@H](CC(C)C)C(=O)O; NMeNva = CCC[C@H](NC)C(=O)O; NMeV = CN[C@H](C(=O)O)C(C)C; d(β3hA) = C[C@@H](N)CC(=O)O; NMeAbu = CC[C@H](NC)C(=O)O; NMeS = CN[C@@H](CO)C(=O)O; Morpholide = C1CN(*)CCO1; NMeA = CN[C@@H](C)C(=O)O; Piperidide = C1CCN(*)CC1; Pyrrolidide = C1CCN(*)C1; Ac5c = NC1(C(=O)O)CCCC1; Aze = O=C(O)[C@@H]1CCN1; Ethyl(2,2-F2) = FC(F)C*; Sar = CNCC(=O)O; Propyl = CCC*
# Tested on: Human pancreatic cancer cell line AsPC-1
# Experiment: Measurement of AsPC-1 cell growth inhibition (AsPC-1 CGI)
# Format: cell-based
# Conditions: 96 h
# Procedure: Measurement of AsPC-1 Cell Growth Inhibition (AsPC-1 CGI)
# Test compounds were serially diluted with dimethyl sulfoxide, and 200 nL was then dispensed to a U-bottom 96-well plate using Labcyte Echo. Human pancreatic cancer cell line AsPC-1 was suspended in RPMI-1640 medium supplemented with 15% fetal bovine serum to prepare a cell suspension at 1000 cells/100 μL. The cell suspension was dispensed to a plate containing a test compound at 100 μL per well and incubated at 37° C. in a 5% carbon dioxide gas incubator. 96 hours later, 80 μL of CellTiter-Glo (Promega) was added to each well and […] was measured.
row,Structure (SMILES),pIC50
1,CCC[C@H]1C(=O)N2CC[C@H]2C(=O)N(C)[C@@H](CC2CCCCC2)C(=O)N(C)CC(=O)N[C@@H](CCc2ccc(C(F)(F)F)c(Cl)c2)C(=O)N2CCC[C@H]2C(=O)NC2(CCCC2)C(=O)N(C)[C@@H](C(C)C)C(=O)N(C)[C@H](C(=O)N2CCCCC2)CC(=O)N(C)[C@@H](CC(C)C)C(=O)N[C@@H]([C@@H](C)CC)C(=O)N1C [Compound 1601] ([NMeL]I[NMeNva][Aze][NMeCha][Sar][hPhe(3-Cl-4-CF3)]P[Ac5c][NMeV][NMeD]-Piperidide; lactam N-11),6.30 to 7.00
2,CC[C@H](C)[C@@H]1NC(=O)[C@H](CC)N(C)C(=O)C[C@@H](C(=O)N2CCCCC2)N(C)C(=O)[C@H](C(C)C)N(C)C(=O)C2(CCCC2)NC(=O)[C@@H]2CCCN2C(=O)[C@H](CCc2ccc(C(F)(F)F)c(Cl)c2)NC(=O)CN(C)C(=O)[C@H](CC2CCCCC2)N(C)C(=O)[C@@H]2CCN2C(=O)[C@H](C)N(C)C1=O [Compound 1638] ([NMeAbu]I[NMeA][Aze][NMeCha][Sar][hPhe(3-Cl-4-CF3)]P[Ac5c][NMeV][NMeD]-Piperidide; lactam N-11),6.30 to 7.00
3,"CC[C@H](C)[C@@H]1NC(=O)[C@H](CC(C)C)N(C)C(=O)C[C@@H](C(=O)N2CCCCC2)N(C)C(=O)[C@H](C2CCCCC2)N(C)C(=O)C2(CCCC2)NC(=O)[C@@H]2C[C@H](OCC(F)F)CN2C(=O)[C@H](CCc2ccc(C(F)(F)F)c(Cl)c2)NC(=O)CN(C)C(=O)[C@H](CC2CCCCC2)N(C)C(=O)CN(C)C(=O)CN(C)C1=O [Compound 2123] ([NMeL]I[Sar][Sar][NMeCha][Sar][hPhe(3-Cl-4-CF3)][cisHyp](Ethyl(2,2-F2))[Ac5c][NMeChg][NMeD]-Piperidide; lactam N-11)",6.30 to 7.00
4,CC[C@H](C)[C@@H]1NC(=O)[C@H](CC2CCC2)N(C)C(=O)C[C@@H](C)NC(=O)[C@H](C(C)C)N(C)C(=O)C2(CCCC2)NC(=O)[C@@H]2CCCN2C(=O)[C@H](CCc2ccc(C(F)(F)F)c(Cl)c2)NC(=O)CN(C)C(=O)[C@H](CC2CCCCC2)N(C)C(=O)[C@@H]2CCN2C(=O)[C@H](C)N(C)C1=O [Compound 455] (cyclo([Ac5c][NMeV][d(β3hA)][NMeCba]I[NMeA][Aze][NMeCha][Sar][hPhe(3-Cl-4-CF3)]P)),6.30 to 7.00
5,CCCOC[C@H]1C(=O)N(C)CC(=O)N[C@@H](CCc2ccc(C(F)(F)F)c(Cl)c2)C(=O)N2CCC[C@H]2C(=O)NC2(CCCC2)C(=O)N(C)[C@@H](C2CCCCC2)C(=O)N(C)[C@H](C(=O)N2CCOCC2)CC(=O)N(C)[C@@H](CC(C)C)C(=O)N[C@@H]([C@@H](C)CC)C(=O)N(C)CC(=O)N(C)CC(=O)N1C [Compound 1966] ([NMeL]I[Sar][Sar][NMeS](Propyl)[Sar][hPhe(3-Cl-4-CF3)]P[Ac5c][NMeChg][NMeD]-Morpholide; lactam N-11),7.00 to 7.30
6,CC[C@H](C)[C@@H]1NC(=O)[C@H](CCC(C)C)N(C)C(=O)C[C@@H](C(=O)N2CCCCC2)N(C)C(=O)[C@H](C(C)C)N(C)C(=O)C2(CCCC2)NC(=O)[C@@H]2CCCN2C(=O)[C@H](CCc2ccc(C(F)(F)F)c(Cl)c2)NC(=O)CN(C)C(=O)[C@H](CC2CCCCC2)N(C)C(=O)[C@@H]2CCN2C(=O)[C@H](C)N(C)C1=O [Compound 1833] ([NMehLeu]I[NMeA][Aze][NMeCha][Sar][hPhe(3-Cl-4-CF3)]P[Ac5c][NMeV][NMeD]-Piperidide; lactam N-11),6.30 to 7.00
7,"CCCOC[C@H]1C(=O)N(C)CC(=O)N[C@@H](CCc2ccc(C(F)(F)F)c(F)c2)C(=O)N2CCC[C@H]2C(=O)NC2(CCCC2)C(=O)N(C)[C@@H](C2CCCC2)C(=O)N(C)[C@H](C(=O)N2C3CCC2COC3)CC(=O)N(C)[C@@H](CC(C)C)C(=O)N[C@@H]([C@@H](C)CC)C(=O)N(C)[C@@H](C)C(=O)N2CC[C@H]2C(=O)N1C [Compound 1030] ([NMeL]I[NMeA][Aze][NMeS](Propyl)[Sar][hPhe(3-F,4-CF3)]P[Ac5c][NMeGly(cPent)][NMeD]-{3Oxa8azabicyclo(3.2.1)octane}; lactam N-11)",7.30 to 7.70
8,CC[C@H](C)[C@@H]1NC(=O)[C@H](CC(C)C)N(C)C(=O)C[C@@H](C(=O)N(C)C)NC(=O)[C@H](C2CCCC2)N(C)C(=O)C2(CCCC2)NC(=O)[C@@H]2CCCN2C(=O)[C@H](CCc2ccc(C(F)(F)F)c(Cl)c2)NC(=O)CN(C)C(=O)[C@H](CC2CCCCC2)N(C)C(=O)[C@@H]2CCN2C(=O)[C@H](C)N(C)C1=O [Compound 677] ([NMeL]I[NMeA][Aze][NMeCha][Sar][hPhe(3-Cl-4-CF3)]P[Ac5c][NMeGly(cPent)]D-NMe2; lactam N-11),7.00 to 7.30
9,CC[C@H](C)[C@@H]1NC(=O)[C@H](CC(C)C)N(C)C(=O)C[C@@H](C(=O)N2CCCC2)N(C)C(=O)[C@H](C(C)C)N(C)C(=O)C2(CCCC2)NC(=O)[C@@H]2CCCN2C(=O)[C@H](CCc2ccc(C(F)(F)F)c(Cl)c2)NC(=O)CN(C)C(=O)[C@H](CC2CCCCC2)N(C)C(=O)[C@@H]2CCN2C(=O)CN(C)C1=O [Compound 1670] ([NMeL]I[Sar][Aze][NMeCha][Sar][hPhe(3-Cl-4-CF3)]P[Ac5c][NMeV][NMeD]-Pyrrolidide; lactam N-11),6.30 to 7.00
10,CC(C)C[C@H]1C(=O)N[C@@H](C2CCC2)C(=O)N(C)[C@@H](C)C(=O)N2CC[C@H]2C(=O)N(C)[C@@H](CC2CCCCC2)C(=O)N(C)CC(=O)N[C@@H](CCc2ccc(C(F)(F)F)c(Cl)c2)C(=O)N2CCC[C@H]2C(=O)NC2(CCCC2)C(=O)N(C)[C@@H](C(C)C)C(=O)N[C@H](C)CC(=O)N1C [Compound 580] (cyclo([Ac5c][NMeV][d(β3hA)][NMeL][Gly(cBu)][NMeA][Aze][NMeCha][Sar][hPhe(3-Cl-4-CF3)]P)),6.30 to 7.00
11,"CC[C@H](C)[C@@H]1NC(=O)[C@H](CC(C)C)N(C)C(=O)C[C@@H](C(=O)N2CCCC2)N(C)C(=O)[C@H]([C@@H](C)CC)N(C)C(=O)C2(CCCC2)NC(=O)[C@@H]2CCCN2C(=O)[C@H](CCc2ccc(C(F)(F)F)c(F)c2)NC(=O)CN(C)C(=O)[C@H](CC2CCCCC2)N(C)C(=O)[C@@H]2CCN2C(=O)[C@H](C)N(C)C1=O [Compound 868] ([NMeL]I[NMeA][Aze][NMeCha][Sar][hPhe(3-F,4-CF3)]P[Ac5c][NMeI][NMeD]-Pyrrolidide; lactam N-11)",7.30 to 7.70
12,CCCOC[C@H]1C(=O)N(C)CC(=O)N[C@@H](CCc2ccc(C(F)(F)F)c(Cl)c2)C(=O)N2CCC[C@H]2C(=O)NC2(CCCC2)C(=O)N(C)[C@@H](C2CCCC2)C(=O)N(C)[C@H](C(=O)N2C3CCC2COC3)CC(=O)N(C)[C@@H](CC2CCCC2)C(=O)N[C@@H]([C@@H](C)CC)C(=O)N[C@@H](C)C(=O)N2CC[C@H]2C(=O)N1C [Compound 1359] ([NMeAla(cPent)]IA[Aze][NMeS](Propyl)[Sar][hPhe(3-Cl-4-CF3)]P[Ac5c][NMeGly(cPent)][NMeD]-{3Oxa8azabicyclo(3.2.1)octane}; lactam N-11),7.00 to 7.30
13,C#CCC[C@H]1C(=O)N[C@@H]([C@@H](C)CC)C(=O)N(C)[C@@H](C)C(=O)N2CC[C@H]2C(=O)N(C)[C@@H](Cc2ccc(I)cc2)C(=O)N(C)CC(=O)N[C@@H](CCc2ccc(C(F)(F)F)c(Cl)c2)C(=O)N2CCC[C@H]2C(=O)NC2(CCCC2)C(=O)N(C)[C@@H](C2CCCCC2)C(=O)N(C)[C@H](C)CC(=O)N1C [Compound 961] (cyclo([Ac5c][NMeChg][NMedβ3hAla][NMeHpra]I[NMeA][Aze][NMePhe(4-I)][Sar][hPhe(3-Cl-4-CF3)]P)),6.30 to 7.00
14,"CC[C@H](C)[C@@H]1NC(=O)[C@H](CC(C)C)N(C)C(=O)C[C@@H](C)N(C)C(=O)[C@H](C2CCCC2)N(C)C(=O)C2(CCCC2)NC(=O)[C@@H]2CC(F)(F)CN2C(=O)[C@H](CCc2ccc(C(F)(F)F)c(Cl)c2)NC(=O)CN(C)C(=O)[C@H](Cc2ccc(C(F)(F)F)cc2)N(C)C(=O)[C@@H]2CCN2C(=O)[C@H](C)N(C)C1=O [Compound 1062] (cyclo([Ac5c][NMeGly(cPent)][NMedβ3hAla][NMeL]I[NMeA][Aze][NMePhe(4-CF3)][Sar][hPhe(3-Cl-4-CF3)][Pro(4,4-F2)]))",7.30 to 7.70
15,CC[C@H](C)[C@@H]1NC(=O)[C@H](CC(C)C)N(C)C(=O)C[C@@H](C)NC(=O)[C@H](C2CCCC2)N(C)C(=O)C2(CCCC2)NC(=O)[C@@H]2CCCN2C(=O)[C@H](CCc2ccc(C(F)(F)F)c(Cl)c2)NC(=O)CN(C)C(=O)[C@H](Cc2ccc(C(F)(F)F)cc2)N(C)C(=O)[C@@H]2CCN2C(=O)[C@H](C)N(C)C1=O [Compound 1475] (cyclo([Ac5c][NMeGly(cPent)][d(β3hA)][NMeL]I[NMeA][Aze][NMePhe(4-CF3)][Sar][hPhe(3-Cl-4-CF3)]P)),7.00 to 7.30
16,"CC[C@H](C)[C@@H]1NC(=O)[C@H](CC(C)C)N(C)C(=O)C[C@@H](C(=O)N2CCCCC2)N(C)C(=O)[C@H](CC(C)C)N(C)C(=O)C2(CCCC2)NC(=O)[C@@H]2C[C@H](OCc3ccccc3C)CN2C(=O)[C@H](CCc2ccc(C(F)(F)F)c(F)c2)NC(=O)CN(C)C(=O)[C@H](CC2CCCCC2)N(C)C(=O)CN(C)C(=O)CN(C)C1=O [Compound 2137] ([NMeL]I[Sar][Sar][NMeCha][Sar][hPhe(3-F,4-CF3)][cisHyp](oXylylene)[Ac5c][NMeL][NMeD]-Piperidide; lactam N-11)",< 6.30
17,CC[C@H](C)[C@@H]1NC(=O)[C@H](CC(C)C)N(C)C(=O)C[C@@H](C(=O)N2CCCCC2)N(C)C(=O)[C@H]([C@@H](C)CC)N(C)C(=O)C2(CCCC2)NC(=O)[C@@H]2CCCN2C(=O)[C@H](CCc2ccc(C(F)(F)F)c(Cl)c2)NC(=O)CN(C)C(=O)[C@H](Cc2ccc(C)cc2)N(C)C(=O)[C@@H]2CCN2C(=O)[C@H](C)N(C)C1=O [Compound 1727] ([NMeL]I[NMeA][Aze][NMePhe(4-Me)][Sar][hPhe(3-Cl-4-CF3)]P[Ac5c][NMeI][NMeD]-Piperidide; lactam N-11),7.30 to 7.70
